Experimental findings from patent US11351168B1 (Celgene CAR LLC, priority 2008, dated 2022) are described below.

Experiment [1] relates to BTK signaling in Ramos cells. Briefly: BTK Ramos cellular assay (phosphorylation of BTK substrate PLCγ2). The format is cell-based, human. Particulars: Homo sapiens, 1 hour compound, anti-IgM stimulation, read-out: BTK Inhibition (Ramos cellular). The method in brief: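 Serum-starved Ramos Burkitt lymphoma cells treated 1 h with compound at 1, 0.1, 0.01 or 0.001 μM final. B-cell receptor stimulated with 1 μg anti-human IgM F(ab′)2, 10 min on ice. Lysates (16 μg protein) immunoblotted for phospho-PLCγ2.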

A further experiment has as its target BTK (Homo sapiens (Human), UniProt Q06187). Kind of experiment: Mass spectrometry for BTK (intact protein). It counts as binding. To be noted: 1 hr, 10× fold excess of compound. As for the experimental part: Mass Spectrometry for BTK
Intact BTK was incubated for 1 hr at a 10× fold excess of I-7 to protein. Aliquots (2 μl) of the samples were diluted with 10 μl of 0.1% TFA prior to micro C4 ZipTipping directly onto the MALDI target using Sinapinic acid as the desorption matrix (10 mg/ml in 0.1% TFA:Acetonitrile 20:80).

The test system of experiment [2] is BTK kinase activity (PLCγ2 phosphorylation) in Ramos cells. Briefly: Washout experiment with Ramos cells. It counts as cell-based, human. Particulars: 100 nM compound for 1 hour, then washout. The procedure: Washout Experiment with Ramos Cells
Ramos cells were serum starved for one hour in RPMI media+1% glutamine at 37° C. After starvation, Ramos cells were treated with 100 nM compound diluted in serum free RPMI media for 1 hour. After compound treatment, the media was removed and cells were washed with compound-free media. Subsequently, Ramos cells were washed every 2 hours and resuspended in fresh compound-free media. Cells were collected at specified timepoints, treated with 1 ug anti-human IgM (Southern Biotech cat #2022-01) for 10 minutes on ice to induce BCR signaling and then washed in PBS. Ramos cells were then lysed in Cell Extraction Buffer (Invitrogen FNN0011) supplemented with Roche complete protease inhibitor tablets (Roche 11697498001) and phosphatase inhibitors (Roche 04 906 837 001) and 18 ug total protein lysate was loaded in each lane. Inhibition of BTK kinase activity was assayed by measuring its substrate (PLCγ2) phosphorylation by western blot with phospho-specific antibodies from Cell Signaling Technologies cat #3871. The results of this experiment with compounds I-2, I-4 and I-7 are depicted in FIGS. 1, 2 and 3.

The next experiment addresses TEC kinase (Homo sapiens (Human), UniProt P42680). Briefly: Mass spectrometry for TEC kinase (tryptic digest). It counts as binding. Particulars: 3 hrs at 10× excess, tryptic digestion. As for the experimental part: Mass Spectrometry for TEC Kinase (Compound I-2)
TEC kinase (45 pmols; Invitrogen) was incubated with (I-2) (450 pmols) for 3 hrs at 10× excess prior to tryptic digestion. Iodoacetamide was used as the alkylating agent after compound incubation. […] For tryptic digests a 5 ul aliquot (7.5 pmols) was diluted with 15 ul of 0.1% TFA prior to micro C18 Zip Tipping directly onto the MALDI target using alpha cyano-4-hydroxy cinnamic acid as the matrix (5 mg/ml in 0.1% TFA:Acetonitrile 50:50).
(§1) For tryptic digests the instrument was set in Reflectron mode with a pulsed extraction setting of 2200. Calibration was done using the Laser Biolabs Pep Mix standard ([…], 1296.69, 1672.92, 2093.09, 2465.20). For CID/PSD analysis the peptide was selected using cursors to set ion gate timing and fragmentation occurred at a laser power about 20% higher and He was used as the collision gas for CID. Calibration for fragments was done using the P14R fragmentation calibration for the Curved field Reflectron.
TEC kinase (45 pmols; Invitrogen) was incubated with (I-4) (450 pmols) for 3 hrs at 10× excess prior to tryptic digestion. Iodoacetamide was used as the alkylating agent after compound incubation. […] For tryptic digests a 5 ul aliquot (7.5 pmols) was diluted with 15 ul of 0.1% TFA prior to micro C18 Zip Tipping directly onto the MALDI target using alpha cyano-4-hydroxy cinnamic acid as the matrix (5 mg/ml in 0.1% TFA:Acetonitrile 50:50).
For tryptic digests the instrument was set in Reflectron mode with a pulsed extraction setting of 1800. Calibration was done using the Laser Biolabs Pep Mix standard ([…], 1296.69, 1672.92, 2093.09, 2465.20). For CID/PSD analysis the peptide was selected using cursors to set ion gate timing and fragmentation occurred at a laser power about 20% higher and He was used as the collision gas for CID. Calibration for fragments was done using the P14R fragmentation calibration for the Curved field Reflectron.
TEC kinase (45 pmols; Invitrogen) was incubated with […] (450 pmols) for 3 hrs at 10× excess prior to tryptic digestion. […]

In experiment [3] the target is T1, BTK in Ramos cells (Homo sapiens (Human), UniProt Q06187). Briefly: BTK occupancy from in vitro samples by ELISA (Ramos cells). It counts as cell-based. To be noted: ELISA with probe I-215. An excerpt: Measuring BTK Occupancy from In Vitro Samples by ELISA
T1 sequence (Q06187 whole entry): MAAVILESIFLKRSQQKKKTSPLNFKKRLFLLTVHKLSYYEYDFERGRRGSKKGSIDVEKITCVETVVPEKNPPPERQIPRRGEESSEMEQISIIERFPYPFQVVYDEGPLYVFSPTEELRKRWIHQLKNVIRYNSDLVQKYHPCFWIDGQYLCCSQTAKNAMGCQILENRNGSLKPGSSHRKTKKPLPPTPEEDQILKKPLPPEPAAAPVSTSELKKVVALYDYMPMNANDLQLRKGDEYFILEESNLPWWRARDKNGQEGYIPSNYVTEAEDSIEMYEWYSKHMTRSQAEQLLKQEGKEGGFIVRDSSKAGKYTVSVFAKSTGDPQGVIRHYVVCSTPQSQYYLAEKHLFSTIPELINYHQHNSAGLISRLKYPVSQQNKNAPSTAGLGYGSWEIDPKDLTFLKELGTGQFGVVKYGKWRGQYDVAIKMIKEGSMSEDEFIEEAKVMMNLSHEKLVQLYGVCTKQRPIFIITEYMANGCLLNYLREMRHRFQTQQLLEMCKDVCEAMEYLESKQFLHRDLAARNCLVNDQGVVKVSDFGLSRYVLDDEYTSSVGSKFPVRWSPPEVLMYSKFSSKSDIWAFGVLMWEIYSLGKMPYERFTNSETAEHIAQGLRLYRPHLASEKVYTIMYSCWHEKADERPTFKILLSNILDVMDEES
In order to determine the amount of free BTK in cell or tissue lysates, an ELISA protocol was employed that utilizes a biotinylated probe compound that binds only to free, unoccupied BTK. The conjugated biotin is captured on a streptavidin-coated ELISA plate and detected with a mouse anti-BTK antibody (Becton Dickinson, Franklin Lakes, N.J., USA) and a secondary goat anti-mouse HRP antibody (Zymed, South San Francisco, Calif., USA).
All samples were prepared with equal concentrations of Biorad lysis buffer (Hercules, Calif., USA), 0.5% bovine serum albumin in PBS with 0.05% Tween-20 to give a final concentration of 1 μM I-215. Samples were incubated in a mixing plate for 1 hr at room temperature while shaking to allow probe compound I-215 to bind to free BTK. After incubation with I-215, samples were added to a washed, streptavidin-coated ELISA plate (Pierce, Rockford, Ill., USA) and incubated for 1 hr at room temperature while shaking. The plate was then washed with PBS containing 0.05% Tween-20 using an automatic plate washer. Anti-BTK antibody was prepared at 1:1000 dilution in 0.5% BSA in PBS (0.05% Tween-20) and added to the ELISA plate. The plate was incubated for 1 hr at room temperature while shaking. The plate was washed as described above and the secondary HRP antibody was prepared at 1:5000 dilution in 0.5% BSA in PBS (0.05% Tween-20). The plate was incubated and washed as described above. TMB was added to the plate, and OD650 was monitored until reaching 1 OD unit. The reaction was then stopped with addition of H2SO4. The plate was analyzed using Gen 5 software, and a 4 Parameter Logistic curve was employed to quantitate samples. Recombinant BTK (Invitrogen, Carlsbad, Calif., USA) was used for the standard curve.
A concentration designated as “A” is greater than 1 nM; a concentration designated as “B” is greater than 10 nM; and a concentration designated as “C” is greater than 50 nM.
In general terms: In an ELISA, binding on a coated surface is turned into a signal by an enzyme label.

Another experiment deals with JAK3 kinase (Homo sapiens (Human), UniProt P52333). Briefly: Mass spectrometry for Janus-3 kinase (JAK3). It counts as binding. Particulars: 3 hrs at 10× excess, tryptic digestion. As for the experimental part: Mass Spectrometry for Janus-3 Kinase (JAK3)
Sequence of JAK3 kinase (P52333 whole entry): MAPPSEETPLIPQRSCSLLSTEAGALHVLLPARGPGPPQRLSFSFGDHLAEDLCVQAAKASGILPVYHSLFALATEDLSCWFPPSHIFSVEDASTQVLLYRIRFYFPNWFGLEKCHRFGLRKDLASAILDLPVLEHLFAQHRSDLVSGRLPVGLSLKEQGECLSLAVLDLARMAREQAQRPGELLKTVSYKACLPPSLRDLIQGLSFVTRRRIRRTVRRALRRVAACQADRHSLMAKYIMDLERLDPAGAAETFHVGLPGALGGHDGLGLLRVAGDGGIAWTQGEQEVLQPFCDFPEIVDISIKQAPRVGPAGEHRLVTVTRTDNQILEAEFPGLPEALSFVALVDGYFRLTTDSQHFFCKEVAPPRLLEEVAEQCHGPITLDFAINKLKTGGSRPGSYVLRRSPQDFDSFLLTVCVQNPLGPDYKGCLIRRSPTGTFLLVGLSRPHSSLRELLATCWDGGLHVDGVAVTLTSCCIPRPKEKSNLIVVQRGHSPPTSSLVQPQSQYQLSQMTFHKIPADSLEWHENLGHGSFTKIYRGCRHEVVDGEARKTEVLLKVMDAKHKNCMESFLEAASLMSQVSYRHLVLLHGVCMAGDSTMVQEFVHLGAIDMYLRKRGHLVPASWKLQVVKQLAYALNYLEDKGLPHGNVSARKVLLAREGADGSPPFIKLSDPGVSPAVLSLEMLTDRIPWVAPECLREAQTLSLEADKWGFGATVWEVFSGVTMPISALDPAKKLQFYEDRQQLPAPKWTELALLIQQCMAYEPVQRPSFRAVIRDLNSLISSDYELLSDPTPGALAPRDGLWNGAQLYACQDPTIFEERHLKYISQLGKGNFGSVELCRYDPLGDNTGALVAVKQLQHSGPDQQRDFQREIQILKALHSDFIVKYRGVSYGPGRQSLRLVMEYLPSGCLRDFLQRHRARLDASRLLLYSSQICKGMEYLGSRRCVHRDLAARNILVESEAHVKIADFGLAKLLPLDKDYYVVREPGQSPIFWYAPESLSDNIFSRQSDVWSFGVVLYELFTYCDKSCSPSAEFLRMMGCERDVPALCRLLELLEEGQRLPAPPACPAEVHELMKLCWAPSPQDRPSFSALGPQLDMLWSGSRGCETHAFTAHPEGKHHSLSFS
JAK3 kinase (33 pmols; Invitrogen) was incubated with (I-7) (327 pmols) for 3 hrs at 10× excess prior to tryptic digestion. Iodoacetamide was used as the alkylating agent after compound incubation. For tryptic digests a 5 ul aliquot (5.5 pmols) was diluted with 15 ul of 0.1% TFA prior to micro C18 Zip Tipping directly onto the MALDI target using alpha cyano-4-hydroxy cinnamic acid as the matrix (5 mg/ml in 0.1% TFA:Acetonitrile 50:50).
as §1

The target in experiment [4] is T1, BTK in Ramos cells. Briefly: Washout experiment with I-7 and probe compound I-215 in Ramos cells. It counts as cell-based. To be noted: 0.1 μM, 1 hour, then washout. The procedure:
Washout Experiment with I-7 and Probe Compound I-215
Ramos cells were incubated with 0.1 μM I-7 or a reversible BTK inhibitor control compound in serum free media for 1 hour at 37° C. The cells were then washed in compound-free media and lysed 0, 4, 6, or 8 hours after compound removal. Cell lysates were incubated with 1 μM I-215 for 1 hour at room temperature, then overnight at 4° C. with streptavidin-coupled agarose beads. Protein was boiled off the beads and BTK association was assessed by western blot. […] In contrast, with the reversible inhibitor control, 45% of BTK protein is unbound and available to the probe at 0 hours and by 4 hours 100% of BTK protein is unbound and available to bind the probe. All samples were normalized to the DMSO-treated cells harvested at 0 hours.

Sequence of BTK (Q06187 whole entry): as the sequence (Q06187 whole entry) above
Sequence of TEC kinase (P42680 whole entry): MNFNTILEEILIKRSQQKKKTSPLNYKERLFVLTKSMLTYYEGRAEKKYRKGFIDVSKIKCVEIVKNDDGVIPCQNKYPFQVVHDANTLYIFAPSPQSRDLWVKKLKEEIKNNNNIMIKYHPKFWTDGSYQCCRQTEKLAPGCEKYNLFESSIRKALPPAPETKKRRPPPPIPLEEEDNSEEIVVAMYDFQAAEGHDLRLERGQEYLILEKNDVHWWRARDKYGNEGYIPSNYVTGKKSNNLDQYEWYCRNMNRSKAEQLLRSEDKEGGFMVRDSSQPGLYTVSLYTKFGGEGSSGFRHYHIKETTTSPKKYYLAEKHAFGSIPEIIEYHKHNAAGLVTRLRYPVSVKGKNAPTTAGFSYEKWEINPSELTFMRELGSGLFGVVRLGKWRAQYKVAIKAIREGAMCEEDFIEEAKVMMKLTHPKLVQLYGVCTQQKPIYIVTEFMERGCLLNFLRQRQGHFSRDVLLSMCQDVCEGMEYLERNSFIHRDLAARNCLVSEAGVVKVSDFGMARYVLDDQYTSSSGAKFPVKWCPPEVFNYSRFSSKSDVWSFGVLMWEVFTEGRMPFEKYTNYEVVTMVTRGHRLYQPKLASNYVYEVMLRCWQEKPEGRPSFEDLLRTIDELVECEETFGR

For `C=CC(=O)N1CCC[C@@H](Nc2nc(Nc3cccc(OC)c3)ncc2F)C1` [Compound I-195, (R)-1-(3-(5-fluoro-2-(3-methoxyphenylamino)pyrimidin-4-ylamino)piperidin-1-yl)prop-2-en-1-one], in experiment [1], the IC50 was 10 to 100 nM. The “modification of BTK by mass spectrometry” value on BTK was “completely modify”.

Take `Cc1cccc(Nc2nc(Nc3cccc(NC(=O)/C=C/CN(C)C)c3)ncc2F)c1` [Compound I-4, (E)-4-(dimethylamino)-N-(3-(5-fluoro-4-(m-tolylamino)pyrimidin-2-ylamino)phenyl)but-2-enamide]: the IC50 in experiment [1] fell in the range of 10 to 100 nM. In experiment [2], the “BTK Inhibition Type” value is recorded as “irreversible”. The “covalent modification of TEC kinase peptide GCLLNFLR by mass spectrometry” value (“covalent modification” for short) on TEC kinase is recorded as “reaction was complete”.

As to “2-((4-(5-fluoro-2-(3-trifluoromethoxyphenylamino)pyrimidin-4-ylamino)phenyl)(hydroxy)methyl)acrylonitrile [Compound I-163]”, on BTK, the “modification of BTK by mass spectrometry” value was “completely modify”.

Regarding `C=CC(=O)Nc1cccc(Nc2nc(Nc3ccc(OCCOC)c(F)c3)ncc2F)c1` [Compound I-96, N-(3-(2-(3-fluoro-4-(2-methoxyethoxy)phenylamino)-5-fluoropyrimidin-4-ylamino)phenyl)acrylamide], in experiment [1], the IC50 is below 10 nM. Moreover, at BTK, the “modification of BTK by mass spectrometry” value is “completely modify”. Besides, on BTK in Ramos cells [3], the “>50% occupancy (concentration)” value was “A (greater than 1 nM)” and the “>90% occupancy (concentration)” value is given as “B (greater than 10 nM)”.

Consider `C=CC(=O)Nc1cccc(Nc2nc(Nc3cccc(OC(F)(F)F)c3)ncc2F)c1` [Compound I-244, N-(3-(5-fluoro-2-(3-(trifluoromethoxy)phenylamino)pyrimidin-4-ylamino)phenyl)acrylamide], for which the IC50 in experiment [1] fell in the range of 10 to 100 nM. Besides, the “modification of BTK by mass spectrometry” value at BTK is “completely modify”.

In the case of `C=CC(=O)Nc1cccc(Nc2ncc(C)c(Nc3cccc(C)c3)n2)c1` [Compound I-2, N-(3-(5-methyl-4-(m-tolylamino)pyrimidin-2-ylamino)phenyl) acrylamide], the “BTK Inhibition Type” value in experiment [2] is “irreversible”. The “covalent modification” value at TEC kinase is reported as “reaction was complete”.

On to `Cc1cnc(Nc2cccc(S(N)(=O)=O)c2)nc1Nc1ccc2c(c1)CCN(C(=O)CCl)C2` [Compound I-11, 3-(4-(2-(2-chloroacetyl)-1,2,3,4-tetrahydroisoquinolin-6-ylamino)-5-methylpyrimidin-2-ylamino)benzenesulfonamide], for which, at JAK3 kinase, the “modification of JAK3 kinase by mass spectrometry” value was “measurable modification”.

In the case of `C=CC(=O)N1CCOc2ccc(Nc3ncc(F)c(Nc4cccc(Cl)c4)n3)cc21` [Compound I-149, 1-(6-(4-(3-chlorophenylamino)-5-fluoropyrimidin-2-ylamino)-2H-benzo[b][1,4]oxazin-4(3H)-yl)prop-2-en-1-one], in experiment [1], the IC50 is 10 to 100 nM. In addition, the “modification of BTK by mass spectrometry” value at BTK is “completely modify”.

With `C=CC(=O)N(C)Cc1ccc(Nc2nc(Nc3ccccc3)ncc2C)cc1` [Compound I-219, N-methyl-N-(4-(5-methyl-2-(phenylamino)pyrimidin-4-ylamino)benzyl)acrylamide], in experiment [1], the IC50 fell in the range of 10 to 100 nM. In addition, at BTK, the “modification of BTK by mass spectrometry” value is “completely modify”.

For `CC(C)=CC(=O)c1cccc(Nc2nc(Nc3cccc(OCCN(C)C)c3)ncc2F)c1` [Compound I-207], the IC50 in experiment [1] is 100 to 1000 nM. For the same compound, the “modification of BTK by mass spectrometry” value on BTK is reported as “completely modify”.

On to `C=CC(=O)Nc1cccc(Nc2nc(Nc3ccc(OCCOC)cc3)ncc2F)c1` [Compound I-182, N-(3-(5-fluoro-2-(4-(2-methoxyethoxy)phenylamino)pyrimidin-4-ylamino)phenyl)acrylamide], for which the “modification of BTK by mass spectrometry” value on BTK was “completely modify”.

For `C=CC(=O)Nc1cccc(Nc2nc(Nc3ccccc3)ncc2C)c1` [Compound I-7, N-(3-(5-methyl-2-(phenylamino)pyrimidin-4-ylamino)phenyl) acrylamide], the IC50 in experiment [1] was below 10 nM. In addition, in experiment [2], the “BTK Inhibition Type” value was “irreversible”. In addition, on BTK, the “modification of BTK by mass spectrometry” value is listed as “complete modification”. Further, on TEC kinase, the “covalent modification” value is “reaction was complete”. The “modification of JAK3 kinase by mass spectrometry” value at JAK3 kinase is “not entirely complete”. Moreover, the “time BTK protein remains occupied after compound removal” value on BTK in Ramos cells [4] is reported as “over 8 hours”. Moreover, on BTK in Ramos cells [3], the “>50% occupancy (concentration)” value is given as “A (greater than 1 nM)” and the “>90% occupancy (concentration)” value is reported as “B (greater than 10 nM)”.
